Measured values as given in patent publication US10251395B2, “Substituted furano-/thienocycloalkylamino-2-pyrimidine derivatives and use thereof for controlling undesired plant growth” (Bayer CropScience Aktiengesellschaft, priority 2015, dated 2019).

Experiments:
Format in all cases: in vivo
[1] = tested on: Abutilon theophrasti; experiment: Pre-emergence herbicidal effect; settings: scored visually after 3 weeks
How it was run: (§1)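 Seeds sown in sandy loam in wood-fiber pots and covered with soil; WP or EC formulations applied to the soil surface as aqueous suspension or emulsion at 600 to 800 L/ha water with 0.2% wetting agent. Greenhouse, 3 weeks; damage scored visually versus untreated controls (100% = plants died, 0% = like control).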

[2] = tested on: Alopecurus myosuroides; experiment: Pre-emergence herbicidal effect; settings: scored visually after 3 weeks
How it was run: as §1

[3] = tested on: Amaranthus retroflexus; experiment: Pre-emergence herbicidal effect; settings: scored visually after 3 weeks
How it was run: as §1

[4] = tested on: Avena fatua; experiment: Pre-emergence herbicidal effect; settings: scored visually after 3 weeks
How it was run: as §1

[5] = tested on: Cyperus esculentus; experiment: Pre-emergence herbicidal effect; settings: scored visually after 3 weeks
How it was run: as §1

[6] = tested on: Echinochloa crus-galli; experiment: Pre-emergence herbicidal effect; settings: scored visually after 3 weeks
How it was run: as §1

[7] = tested on: Ipomoea purpurea; experiment: Pre-emergence herbicidal effect; settings: scored visually after 3 weeks
How it was run: as §1

[8] = tested on: Matricaria inodora; experiment: Pre-emergence herbicidal effect; settings: scored visually after 3 weeks
How it was run: as §1

[9] = tested on: Polygonum convolvulus; experiment: Pre-emergence herbicidal effect; settings: scored visually after 3 weeks
How it was run: as §1

[10] = tested on: Setaria viridis; experiment: Pre-emergence herbicidal effect; settings: scored visually after 3 weeks
How it was run: as §1

[11] = tested on: Stellaria media; experiment: Pre-emergence herbicidal effect; settings: scored visually after 3 weeks
How it was run: as §1

[12] = tested on: Veronica persica; experiment: Pre-emergence herbicidal effect; settings: scored visually after 3 weeks
How it was run: as §1

[13] = tested on: Amaranthus retroflexus; experiment: Post-emergence herbicidal effect; settings: assessed visually after about 3 weeks vs untreated controls
How it was run: (§2)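 Action, expressed in percent from 0 (like controls) to 100 (plants died), is read by eye about 3 weeks after foliar application. Applications use formulated product in water at 600–800 L/ha on one-leaf-stage plants sown in sandy loam.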

[14] = tested on: Echinochloa crus-galli; experiment: Post-emergence herbicidal effect; settings: 320 g/ha, assessed visually after about 3 weeks vs untreated controls
How it was run: as §2

[15] = tested on: Matricaria inodora; experiment: Post-emergence herbicidal effect; settings: assessed visually after about 3 weeks vs untreated controls
How it was run: as §2

[16] = tested on: Setaria viridis; experiment: Post-emergence herbicidal effect; settings: assessed visually after about 3 weeks vs untreated controls
How it was run: as §2

[17] = tested on: Stellaria media; experiment: Post-emergence herbicidal effect; settings: assessed visually after about 3 weeks vs untreated controls
How it was run: as §2

[18] = tested on: Veronica persica; experiment: Post-emergence herbicidal effect; settings: assessed visually after about 3 weeks vs untreated controls
How it was run: as §2

[19] = tested on: Viola tricolor; experiment: Post-emergence herbicidal effect; settings: assessed visually after about 3 weeks vs untreated controls
How it was run: as §2

[20] = tested on: Viola tricolor; experiment: Pre-emergence herbicidal effect; settings: scored visually after 3 weeks
How it was run: as §1

[21] = tested on: Abutilon theophrasti; experiment: Post-emergence herbicidal effect; settings: assessed visually after about 3 weeks vs untreated controls
How it was run: as §2

[22] = tested on: Lolium multiflorum; experiment: Pre-emergence herbicidal effect; settings: Dosage 320 g/ha, scored visually after 3 weeks
How it was run: as §1

[23] = tested on: Ipomoea purpurea; experiment: Post-emergence herbicidal effect; settings: assessed visually after about 3 weeks vs untreated controls
How it was run: as §2

| Compound | ALOMY pre-emergence efficacy (herbicidal activity) ([2]; Dosage 320 g/ha) [%] | CYPES pre-emergence efficacy (herbicidal activity) ([5]; Dosage 320 g/ha) [%] | ECHCG pre-emergence efficacy (herbicidal activity) ([6]; Dosage 320 g/ha) [%] | PHBPU pre-emergence efficacy (herbicidal activity) ([7]; Dosage 320 g/ha) [%] | MATIN pre-emergence efficacy (herbicidal activity) ([8]; Dosage 80 g/ha) [%] | MATIN pre-emergence efficacy (herbicidal activity) ([8]; Dosage 320 g/ha) [%] | SETVI pre-emergence efficacy (herbicidal activity) ([10]; Dosage 320 g/ha) [%] | STEME pre-emergence efficacy (herbicidal activity) ([11]; Dosage 80 g/ha) [%] | STEME pre-emergence efficacy (herbicidal activity) ([11]; Dosage 320 g/ha) [%] | VERPE pre-emergence efficacy (herbicidal activity) ([12]; Dosage 80 g/ha) [%] | VERPE pre-emergence efficacy (herbicidal activity) ([12]; Dosage 320 g/ha) [%] | post-emergence efficacy AMARE ([13]; 80 g/ha) [%] | post-emergence efficacy AMARE ([13]; 320 g/ha) [%] | post-emergence efficacy MATIN ([15]; 320 g/ha) [%] | post-emergence efficacy STEME ([17]; 80 g/ha) [%] | post-emergence efficacy STEME ([17]; 320 g/ha) [%] | post-emergence efficacy VERPE ([18]; 320 g/ha) [%] | post-emergence efficacy VIOTR ([19]; 80 g/ha) [%] | post-emergence efficacy VIOTR ([19]; 320 g/ha) [%] | PHBPU pre-emergence efficacy (herbicidal activity) ([7]; Dosage 80 g/ha) [%] | further results |
| --- | --- | --- | --- | --- | --- | --- | --- | --- | --- | --- | --- | --- | --- | --- | --- | --- | --- | --- | --- | --- | --- |
| Cc1cc2c(s1)CCCC2Nc1ncc(C#N)c(N)n1 (racemic) [compound 52] | 80 | 100 | 90 | 100 | 100 | 100 | 100 | 100 | 100 | 100 | 100 | 100 | 100 | 60 | 100 | 100 | 90 | 90 | 90 | – | ABUTH pre-emergence efficacy (herbicidal activity) ([1]; Dosage 80 g/ha): 90%; ABUTH pre-emergence efficacy (herbicidal activity) ([1]; Dosage 320 g/ha): 100%; ALOMY pre-emergence efficacy (herbicidal activity) ([2]; Dosage 80 g/ha): 70%; AMARE pre-emergence efficacy (herbicidal activity) ([3]; Dosage 80 g/ha): 100%; AMARE pre-emergence efficacy (herbicidal activity) ([3]; Dosage 320 g/ha): 100%; AVEFA pre-emergence efficacy (herbicidal activity) ([4]; Dosage 80 g/ha): 90%; AVEFA pre-emergence efficacy (herbicidal activity) ([4]; Dosage 320 g/ha): 90%; CYPES pre-emergence efficacy (herbicidal activity) ([5]; Dosage 80 g/ha): 100%; ECHCG pre-emergence efficacy (herbicidal activity) ([6]; Dosage 80 g/ha): 80%; POLCO pre-emergence efficacy (herbicidal activity) ([9]; Dosage 80 g/ha): 100%; POLCO pre-emergence efficacy (herbicidal activity) ([9]; Dosage 320 g/ha): 100%; SETVI pre-emergence efficacy (herbicidal activity) ([10]; Dosage 80 g/ha): 80%; post-emergence efficacy ECHCG [14]: 100%; post-emergence efficacy MATIN ([15]; 80 g/ha): 60%; post-emergence efficacy SETVI ([16]; 80 g/ha): 60%; post-emergence efficacy SETVI ([16]; 320 g/ha): 80%; post-emergence efficacy VERPE ([18]; 80 g/ha): 90% |
| Cc1cc2c(s1)CCCC2Nc1nc(N)c(S(C)(=O)=O)c(C(F)F)n1 (racemic) [compound 287] | – | 100 | – | 100 | 100 | 100 | – | 90 | 100 | 100 | 100 | 90 | 100 | – | 80 | 100 | 100 | 100 | 100 | 90 | CYPES pre-emergence efficacy (herbicidal activity) ([5]; Dosage 80 g/ha): 80%; VIOTR pre-emergence efficacy (herbicidal activity) ([20]; Dosage 80 g/ha): 90%; VIOTR pre-emergence efficacy (herbicidal activity) ([20]; Dosage 320 g/ha): 100%; post-emergence efficacy ABUTH ([21]; 80 g/ha): 80%; post-emergence efficacy ABUTH ([21]; 320 g/ha): 80%; post-emergence efficacy SETVI ([16]; 320 g/ha): 80%; post-emergence efficacy VERPE ([18]; 80 g/ha): 80% |
| CC(=NO)c1cnc(NC2CCCc3sc(C)cc32)nc1N (stereo not drawn) [compound 286] | 60 | 70 | 100 | 50 | 80 | 100 | 100 | 60 | 100 | 100 | 100 | 90 | 90 | 90 | 70 | 100 | 100 | 90 | 90 | 100 | ABUTH pre-emergence efficacy (herbicidal activity) ([1]; Dosage 80 g/ha): 70%; ABUTH pre-emergence efficacy (herbicidal activity) ([1]; Dosage 320 g/ha): 60%; AMARE pre-emergence efficacy (herbicidal activity) ([3]; Dosage 320 g/ha): 100%; LOLMU pre-emergence efficacy (herbicidal activity) [22]: 80%; POLCO pre-emergence efficacy (herbicidal activity) ([9]; Dosage 320 g/ha): 100%; VIOTR pre-emergence efficacy (herbicidal activity) ([20]; Dosage 80 g/ha): 100%; VIOTR pre-emergence efficacy (herbicidal activity) ([20]; Dosage 320 g/ha): 100%; post-emergence efficacy ABUTH ([21]; 80 g/ha): 90%; post-emergence efficacy ABUTH ([21]; 320 g/ha): 90%; post-emergence efficacy PHBPU ([23]; 80 g/ha): 70%; post-emergence efficacy PHBPU ([23]; 320 g/ha): 70%; post-emergence efficacy MATIN ([15]; 80 g/ha): 80% |
| CC(=O)c1cnc(NC2CCCc3sccc32)nc1N (stereo not drawn) [compound 301] | 80 | 70 | 100 | 100 | 100 | 100 | 100 | 100 | 100 | 100 | 100 | 80 | 80 | 60 | 60 | 60 | 100 | 80 | 90 | 100 | ECHCG pre-emergence efficacy (herbicidal activity) ([6]; Dosage 80 g/ha): 70%; LOLMU pre-emergence efficacy (herbicidal activity) [22]: 100%; SETVI pre-emergence efficacy (herbicidal activity) ([10]; Dosage 80 g/ha): 100%; VIOTR pre-emergence efficacy (herbicidal activity) ([20]; Dosage 80 g/ha): 100%; VIOTR pre-emergence efficacy (herbicidal activity) ([20]; Dosage 320 g/ha): 100%; post-emergence efficacy PHBPU ([23]; 320 g/ha): 90% |
